# From PMC7756341, “Liposomal FRET Assay Identifies Potent Drug‐Like Inhibitors of the Ceramide Transport Protein (CERT)” (Chemistry (Weinheim an Der Bergstrasse, Germany), 2020)
# Where “and” joins values, the source holds several entries; their conditions need not be identical. Identical values can stand only once.
# System: HeLa cells
# Experiment: Sphingolipid content of treated HeLa cells by quantitative mass spectrometry
# Format: cell-based
# Conditions: HeLa, 42h, single replicates; for Cer16 / Cer18 / Cer20 / Cer22 / Cer24 / Cer24:1 / Cer total / S1P / SM16 / SM18 / SM20 / SM22 / SM24 / SM24:1 / SM total / Sph: 500.000 cells per sample
# Protocol: 5.2 Cellular experiment for lipidomic analysis
# Hela cells were cultured in six well plates (177000 cells per well) under standard growth conditions (DMEM with 4mM L-glutamine, 10% FBS, 1% Penicillin-Streptomycin; CO2 incubator with […]
# 37°C, 5% CO2). […]
# After incubation, […]
# the adherent cells were washed twice with ice-cold PBS and harvested by treatment with trypsin.
# Cells were counted using a Countess II cell counter ( Invitrogen) and adjusted to 500.000 cells per sample. Each sample was then treated as described below.
# 6. Details for experimental lipidomics
# Cells were subjected to lipid extraction using 1.5 mL methanol/chloroform (2:1, v:v) as described. The extraction solvent contained C17-ceramide (Cer17) and C16 -d31-sphingomyelin (d31-SM16) (both Avanti Polar Lipids, Alabaster, USA) as internal standards. Chromatographic separations were achieved on a 1260 Infinity HPLC (Agilent Technologies, Waldbronn, Germany) equipped with a Poroshell 120 EC-C8 column (3.0 × 150 mm, 2.7 µm; Agilent Technologies). A mobile phase system consisting of water (solvent A) and acetonitrile/methanol (1:1, v:v; solvent B), both acidified with 0.1% formic acid, was used for gradient elution at an initial composition of 40:60 (A:B, v:v) and a flow rate of 0.5 mL/min. MS/MS analyses were carried out using a 6490 triple-quadrupole mass spectrometer (Agilent Technologies) operating in the positive electrospray ionization mode (ESI+). The following ion source parameters were set: sheath gas temperature, 375 °C; sheath gas flow, 12 L/min of nitrogen; nebulizer pressure, 30 psi; drying gas temperature, 200 °C; drying gas flow, 15 L/min of nitrogen; capillary voltage, 4000 V; nozzle voltage, 1500 V; iFunnel high pressure RF voltage, 150 V and iFunnel low pressure RF voltage, 60 V. The following mass transitions were recorded (collision energies of 25 eV for all transitions): ceramides: m/z […]
# with MassHunter Software (Agilent Technologies). Significance of differences between two samples was calculated by student’s t -test. Asterisks indicate significant differences between treated and untreated samples: * p<0.05; ** p<0.01; *** p<0.005.
# Table S1. Sphingolipid content of treated cells.
# (1 picture or pasted object on this page, not shown here)
structure (smiles),measurement,setting,value
"CCCCCCCCCCCC(=O)NC(CO)CC(O)c1ccccc1 (stereo not drawn) [HPA-12, N-(3Hydroxy-1-hydroxymethyl-3-phenylpropyl)-dodecamide]",Cer16,1 µM,"48,20 pmol/sample and 45,94 pmol/sample and 44,92 pmol/sample"
same,Cer18,1 µM,"3,35 pmol/sample and 2,85 pmol/sample and 3,38 pmol/sample"
same,Cer20,1 µM,"1,15 pmol/sample and 0,88 pmol/sample and 1,18 pmol/sample"
same,Cer22,1 µM,"8,47 pmol/sample and 7,59 pmol/sample and 8,53 pmol/sample"
same,Cer24,1 µM,"25,47 pmol/sample and 26,70 pmol/sample and 25,58 pmol/sample"
same,Cer24:1,1 µM,"64,01 pmol/sample and 60,79 pmol/sample and 68,53 pmol/sample"
same,Cer total,1 µM,"150,65 pmol/sample and 143,74 pmol/sample and 153,13 pmol/sample"
same,S1P,1 µM,"1,34 pmol/sample and 1,27 pmol/sample and 1,52 pmol/sample"
same,SM16,1 µM,"1695,91 pmol/sample and 1668,53 pmol/sample and 1609,69 pmol/sample"
same,SM18,1 µM,"47,55 pmol/sample and 44,39 pmol/sample and 46,43 pmol/sample"
same,SM20,1 µM,"15,20 pmol/sample and 14,34 pmol/sample and 14,30 pmol/sample"
same,SM22,1 µM,"91,42 pmol/sample and 86,76 pmol/sample and 85,97 pmol/sample"
same,SM24,1 µM,"147,79 pmol/sample and 134,40 pmol/sample and 140,17 pmol/sample"
same,SM24:1,1 µM,"708,14 pmol/sample and 660,22 pmol/sample and 659,25 pmol/sample"
same,SM total,1 µM,"2706,02 pmol/sample and 2608,64 pmol/sample and 2555,82 pmol/sample"
same,Sph,1 µM,"3,87 pmol/sample and 3,57 pmol/sample and 3,94 pmol/sample"
same,ratio total SM/Cer,1 µM,"17,7 and 17,3 and 17,8"
same,Cer16,2.5 µM,"45,72 pmol/sample and 45,34 pmol/sample and 45,94 pmol/sample"
same,Cer18,2.5 µM,"2,82 pmol/sample and 3,05 pmol/sample and 2,77 pmol/sample"
same,Cer20,2.5 µM,"0,99 pmol/sample and 0,90 pmol/sample and 0,94 pmol/sample"
same,Cer22,2.5 µM,"8,93 pmol/sample (2×) and 7,27 pmol/sample"
same,Cer24,2.5 µM,"29,39 pmol/sample and 22,20 pmol/sample and 31,70 pmol/sample"
same,Cer24:1,2.5 µM,"64,09 pmol/sample and 55,48 pmol/sample and 66,75 pmol/sample"
same,Cer total,2.5 µM,"151,94 pmol/sample and 134,23 pmol/sample and 157,03 pmol/sample"
same,S1P,2.5 µM,"1,60 pmol/sample and 1,73 pmol/sample and 1,58 pmol/sample"
same,SM16,2.5 µM,"1489,44 pmol/sample and 1440,97 pmol/sample and 1448,69 pmol/sample"
same,SM18,2.5 µM,"53,85 pmol/sample and 43,84 pmol/sample and 45,37 pmol/sample"
same,SM20,2.5 µM,"20,27 pmol/sample and 13,88 pmol/sample and 14,55 pmol/sample"
same,SM22,2.5 µM,"75,95 pmol/sample and 76,48 pmol/sample and 75,20 pmol/sample"
same,SM24,2.5 µM,"129,06 pmol/sample and 114,60 pmol/sample and 121,10 pmol/sample"
same,SM24:1,2.5 µM,"524,32 pmol/sample and 581,92 pmol/sample and 555,40 pmol/sample"
same,SM total,2.5 µM,"2229,23 pmol/sample and 2350,50 pmol/sample and 2245,18 pmol/sample"
same,Sph,2.5 µM,"2,13 pmol/sample and 3,27 pmol/sample and 2,40 pmol/sample"
same,ratio total SM/Cer,2.5 µM,"14,2 and 15,5 and 16,7"
same,Cer16,5 µM,"43,83 pmol/sample and 46,26 pmol/sample and 43,34 pmol/sample"
same,Cer18,5 µM,"2,50 pmol/sample and 2,62 pmol/sample and 2,51 pmol/sample"
same,Cer20,5 µM,"0,74 pmol/sample and 0,81 pmol/sample and 0,73 pmol/sample"
same,Cer22,5 µM,"6,88 pmol/sample and 6,54 pmol/sample and 6,85 pmol/sample"
same,Cer24,5 µM,"20,93 pmol/sample and 21,64 pmol/sample and 23,60 pmol/sample"
same,Cer24:1,5 µM,"53,37 pmol/sample and 55,90 pmol/sample and 57,30 pmol/sample"
same,Cer total,5 µM,"128,26 pmol/sample and 133,78 pmol/sample and 134,34 pmol/sample"
same,S1P,5 µM,"1,43 pmol/sample and 1,97 pmol/sample and 1,45 pmol/sample"
same,SM16,5 µM,"1306,31 pmol/sample and 1249,58 pmol/sample and 1356,77 pmol/sample"
same,SM18,5 µM,"41,78 pmol/sample and 39,06 pmol/sample and 41,13 pmol/sample"
same,SM20,5 µM,"12,76 pmol/sample and 12,48 pmol/sample and 12,54 pmol/sample"
same,SM22,5 µM,"68,87 pmol/sample and 67,07 pmol/sample and 70,68 pmol/sample"
same,SM24,5 µM,"101,53 pmol/sample and 101,48 pmol/sample and 113,95 pmol/sample"
same,SM24:1,5 µM,"471,40 pmol/sample and 487,46 pmol/sample and 521,22 pmol/sample"
same,SM total,5 µM,"2002,66 pmol/sample and 1957,13 pmol/sample and 2116,29 pmol/sample"
same,Sph,5 µM,"3,33 pmol/sample and 3,81 pmol/sample and 3,47 pmol/sample"
same,ratio total SM/Cer,5 µM,"15,6 and 14,6 and 15,8"
